From paper PMC10180054, “Design, Synthesis and Biological Evaluation of Novel Pleuromutilin Derivatives Containing 6-Chloro-1-R-1H-pyrazolo[3,4-d]pyrimidine-4-amino Side Chain” (Molecules, 2023)
Values after ≈ are worked out from the molar mass of the structure shown. “Also recorded” adds a separate entry of the source. Like-named read-outs stand apart in the source and are kept apart here.

Key:
[1] = system: MRSA ATCC 43300; assay: MIC/MBC by broth dilution (CLSI); type: cell-based, Staphylococcus aureus; settings: for MIC: MRSA ATCC 43300, broth dilution, 24 h, 37 °C
Outline: (§1)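 CLSI broth dilution used twofold compound series from 64 to 0.0625 µg/mL (stocks in water with 2.5% DMSO and 2.5% Tween-80) and a final inoculum of 5 × 10^5 CFU/mL, in triplicate. For MBC, 25 µL from wells without visible growth was plated on MH agar and cultured 24 h at 37 °C.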

[2] = system: S. aureus 144; assay: MIC/MBC by broth dilution (CLSI); type: cell-based; settings: Staphylococcus aureus; S. aureus 144 (clinical strain)
Outline: as §1

[3] = system: S. aureus AD3; assay: MIC/MBC by broth dilution (CLSI); type: cell-based; settings: Staphylococcus aureus; S. aureus AD3 (clinical strain)
Outline: as §1

[4] = system: S. aureus ATCC 29213; assay: MIC/MBC by broth dilution (CLSI); type: cell-based; settings: Staphylococcus aureus, ATCC29213
Outline: as §1

[5] = system: MRSA ATCC 43300; assay: Constant concentration time–kill curves; type: cell-based, Staphylococcus aureus
Experimental: Time–kill kinetic assays were performed, which were used to investigate the in vitro bactericidal kinetic effect of compounds 12c, 19c, 22c and tiamulin.
Time–kill curve assays were established with the MIC value to investigate the antibacterial effect of constant drug concentration on MRSA. […] MRSA ATCC 43300 was incubated in MH broth at 37 °C for 4.5 h and diluted to 1 × 10^6 CFU/mL in MH broth. The saline control group was subjected to the same schedule but 0.9% saline water was added instead of the test compound. All the samples were incubated in an oscillating thermostatic at 37 °C, and then 100 μL of the mixture was extracted to 900 μL of sterile saline (0.9%) at 0, 3, 6, 9, 12 and 24 h, respectively. Samples were serially diluted 10-fold in sterile saline (0.9%) and inoculated onto agar plates. The colonies were counted after incubation at 37 °C for 24 h. Three independent experiments were performed according to our previous work. Time–kill curves were constructed by plotting the log10 CFU per millilitre versus time, and the change in bacterial concentration was determined.

[6] = system: RAW 264.7 cells; assay: Cytotoxicity MTT assay; type: cell-based, mouse; settings: 16 h
Experimental: (§2) The presence of compounds can influence cellular basic physiological processes, suppress proliferation and even reduce cell survival, etc. In the community, MRSA generally causes respiratory infection. Therefore, cytotoxicity was evaluated to explore the effect of compounds 12c and 22c on the viability of the respiratory tract cells 16-HBE (human bronchial epithelial cell line). RAW 264.7 (mouse peritoneal macrophage cell line) and Caco-2 (human epithelial colorectal adenocarcinoma cell line) were also used to evaluate the cytotoxicity of compounds 12c and 22c by MTT assay.
Cytotoxicity of the test compounds was assessed using the conventional MTT method. RAW 264.7 murine macrophage cells, Caco-2 cells and 16-HBE were used in this experiment. The cells were seeded into 96-well plates at a density of 1.0 × 10^5 cells per well. After 4 h at 37 °C, the cells were treated with compounds 12c and 22c at various concentrations and incubated at 37 °C for 16 h. Next, MTT (0.5 mg/mL in PBS, 100 μL/well) was added sequentially to each well in a humidified atmosphere of 95% air and 5% CO2 incubator and the incubation continued for an additional four hours. […] At the end of this period, the absorbance was measured at 490 nm by a microplate spectrophotometer (BIO-TEK Instruments, Winooski, VT, USA).

[7] = system: 16-HBE cells; assay: Cytotoxicity MTT assay; type: cell-based, human; settings: 1~8 μg/mL, 16 h
Experimental: as §2
(§3) Cytotoxicity of the test compounds was assessed using the conventional MTT method. RAW 264.7 murine macrophage cells, Caco-2 cells and 16-HBE were used in this experiment. The cells were seeded into 96-well plates at a density of 1.0 × 10^5 cells per well. After 4 h at 37 °C, the cells were treated with compounds 12c and 22c at various concentrations and incubated at 37 °C for 16 h. Next, MTT (0.5 mg/mL in PBS, 100 μL/well) was added sequentially to each well in a humidified atmosphere of 95% air and 5% CO2 incubator and the incubation continued for an additional four hours. After incubation, the medium was peeled off and DMSO (150 μL/well) was added to dissolve the cells, and then the incubation was continued for 30 min. At the end of this period, the absorbance was measured at 490 nm by a microplate spectrophotometer (BIO-TEK Instruments, Winooski, VT, USA).

[8] = system: Caco-2 cells; assay: Cytotoxicity MTT assay; type: cell-based, human; settings: 1~8 μg/mL, 16 h
Experimental: as §2, §3

[9] = system: MRSA ATCC 43300; assay: Neutropenic murine thigh infection model; type: in vivo; settings: neutropenic mice, 20 mg/kg, 24 h after dosing, n = 6/group
Experimental: Therefore, the in vivo efficacy of compounds 12c and 22c were assessed using the murine neutropenic thigh infection model. Mice groups treated with saline and tiamulin were chosen as the negative and positive controls.
Model experiments of neutropenic mouse thigh infection were manipulated as described in the literature. Female, six-week-old, specific-pathogen-free mice weighing approximately 23~26 g were used throughout the study. Mice were rendered neutropenic by injection of cyclophosphamide (Mead Johnson Pharmaceuticals, Evansville, IN) on day 4 (150 mg/kg) and day 1 (100 mg/kg) before the experiment. The neutrophil numbers in mice blood should be <0.1 × 10^9/L [34]. In total, 0.1 mL of MH broth of MRSA (10^7 CFU/mL) was inoculated into each thigh of the neutropenic mice. Mice were divided into 4 groups (6 mice per group), including control (sterile saline), compounds 12c, 22c and tiamulin groups. After 3 h post-infection, the corresponding drugs were injected into each mouse’s thigh. Mice were euthanized following intravenous injection for 24 h. Thigh tissue of each mouse was removed, collected, weighed and homogenized in 3 mL of ice sterile saline. Six ten-fold serial dilutions were performed and 25 μL of the bacterial solution from each tube was plated on MH agar plates. The resulting colonies were counted after 24 h incubation at 37 °C. The protocol for this study was reviewed and approved by the Institutional Animal Care and Use Committee of the South China Agricultural University.

For `C=C[C@]1(C)C[C@@H](OC(=O)CSc2ccc(Nc3nc(Cl)nc4c3cnn4-c3ccc(F)c(F)c3)cc2)[C@]2(C)[C@H](C)CC[C@]3(CCC(=O)[C@H]32)[C@@H](C)[C@@H]1O` [Compound 22c, 22-[4-(6-Chloro-1-(3,4-difluorophenyl)-1H-pyrazolo[3,4-d]pyrimidine-4-yl)amino-Phenylsulfanyl]-22-deoxypleuromutilin], the MIC [1] was 0.25/0.25 μg/mL, the MBC ([1]; Staphylococcus aureus, MRSA ATCC 43300, 99.9% of the bacteria killed) was 0.25 µg/mL (≈ 0.333 µM) and the MIC ([1]; Staphylococcus aureus, read-out: MIC) was 0.25 µg/mL (≈ 0.333 µM). For the same compound, the MBC/MIC ratio ([1]; against MRSA) was ≤ 2, the MBC [2] was 1 µg/mL (≈ 1.33 µM) and the MIC [2] was 0.5 µg/mL (≈ 0.666 µM). The MBC [3] was 0.25 µg/mL (≈ 0.333 µM), the MIC [3] was 0.125 µg/mL (≈ 0.167 µM) and the MBC ([4]; S. aureus ATCC 29213) was 0.5 µg/mL (≈ 0.666 µM). The MIC ([4]; S. aureus ATCC 29213, broth dilution, 24 h, 37 °C) was 0.25 µg/mL (≈ 0.333 µM), the “MRSA killed in time–kill assay” value ([5]; 2 × MIC, 24 h incubation) was 99.99% and the “reduction of MRSA in time–kill assay” value ([5]; 2 × MIC, 24 h incubation) was −4.47 log10 CFU/mL. The “reduction of MRSA in time–kill assay” value ([5]; 4 × MIC) was −5.79 log10 CFU/mL, the “type of bactericidal kinetics” value ([5]; time–kill curves, 1 to 32 × MIC) was “time-dependent” and the “effect on viability of RAW 264.7 cells” value ([6]; 8 µg/mL) was “slight inhibition”. For the same compound, the “effect on viability of RAW 264.7 cells” value ([6]; ≤8 μg/mL) was “no significant inhibition”, the “effect on viability of 16-HBE cells” value [7] was “no significant inhibition; also recorded: did not affect the viability” and the “effect on viability of Caco-2 cells” value [8] was “no significant inhibition; also recorded: did not affect the viability”. The “reduction of MRSA load in thigh vs growth control” value [9] was −0.93 log10 CFU/mL and the melting point was 109 to 113 °C.
